From patent publication EP0881220A1, “DIARYLSULTAM DERIVATIVES” (priority 1996, dated 1997)

Tests used:
[1] = target: sigma 1 binding site (Cavia porcellus, UniProt Q60492)
[2] = target: T1, Dopamine D2 (Rattus norvegicus, UniProt P61169); assay: Binding to dopaminergic receptors using rat striata (method of Terai et al.)
T1 construct: dopaminergic receptors was also measured using rat striata; from tissue; host or cells: rat striata
Experimental: The binding of these compounds to dopaminergic receptors was also measured using rat striata according to the method described by Terai et al. (M. Terai, et al., Eur. J. Pharmacol. 1989, 173, 177).

[3] = target: T2, sigma 2 binding site (Rattus norvegicus, UniProt Q5U3Y7); assay: Sigma 2 selective receptor binding inhibition assay with [^3H]-di-o-tolylguanidine
T2 sequence (Q5U3Y7 1-176): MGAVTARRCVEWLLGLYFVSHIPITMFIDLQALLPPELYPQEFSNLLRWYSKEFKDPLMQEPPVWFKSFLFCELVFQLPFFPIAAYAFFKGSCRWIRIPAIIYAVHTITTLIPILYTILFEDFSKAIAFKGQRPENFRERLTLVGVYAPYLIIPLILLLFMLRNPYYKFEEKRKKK

sigma 1 binding site, sequence (Q60492 whole entry): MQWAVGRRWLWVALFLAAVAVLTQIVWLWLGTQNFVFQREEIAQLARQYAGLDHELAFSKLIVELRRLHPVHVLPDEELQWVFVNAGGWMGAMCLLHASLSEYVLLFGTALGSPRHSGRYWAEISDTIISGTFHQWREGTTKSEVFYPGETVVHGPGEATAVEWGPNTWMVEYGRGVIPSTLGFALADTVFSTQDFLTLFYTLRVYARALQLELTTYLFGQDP
T1 sequence (P61169 whole entry): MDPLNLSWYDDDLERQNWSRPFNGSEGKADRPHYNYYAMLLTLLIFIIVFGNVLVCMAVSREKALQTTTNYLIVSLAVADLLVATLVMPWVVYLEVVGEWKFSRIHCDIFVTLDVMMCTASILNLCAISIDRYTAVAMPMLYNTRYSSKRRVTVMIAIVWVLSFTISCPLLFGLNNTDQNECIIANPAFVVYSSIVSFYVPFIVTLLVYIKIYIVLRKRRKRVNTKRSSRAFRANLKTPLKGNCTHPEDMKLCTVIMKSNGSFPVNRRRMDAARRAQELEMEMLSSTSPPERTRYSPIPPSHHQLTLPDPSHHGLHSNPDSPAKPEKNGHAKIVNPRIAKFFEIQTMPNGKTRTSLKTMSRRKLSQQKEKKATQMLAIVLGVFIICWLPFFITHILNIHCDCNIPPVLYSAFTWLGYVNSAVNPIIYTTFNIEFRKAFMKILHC

SMILES: O=C(O)/C=C/C(=O)O.O=S1(=O)c2ccccc2Oc2ccccc2N1CC1CCN(C[C@H](O)C23CC4CC(CC(C4)C2)C3)CC1.O=S1(=O)c2ccccc2Oc2ccccc2N1CC1CCN(C[C@H](O)C23CC4CC(CC(C4)C2)C3)CC1 [Example 10, (R,S)-1-(1-Adamantyl)-2-[4-(6H-dibenzo[b,f][1,4,5]oxathiazepin-6-yl-methyl)piperidin-1-yl]ethanol S,S-dioxide hemi-fumarate]
- Ki [1]: 200 nM
- Ki [2]: > 1000 nM
- S2/S1 Ratio ([3]; ratio of Sigma 2 Ki to Sigma 1 Ki): 0.004
- Ki ([3]; read-out: Sigma 2 Ki(nM ± SEM), [^3H]-DTG 1 nM, rat liver crude P2 membrane fraction, 500 nM pentazocine, 2 hours at 25°C): 0.76 nM
